Laboratory results reported in publication PMC8766756, “Insights on Cancer Cell Inhibition, Subcellular Activities, and Kinase Profile of Phenylacetamides Pending 1H-Imidazol-5-One Variants” (Frontiers in Pharmacology, 2022).

How the values were obtained:
Assay in all cases: PamChip tyrosine kinase microarray
Assay type in all cases: biochemical
Settings in all cases: 0.1 µM, HL60 lysate
FGFR1 (P11362) = target: T1, FGFR1 (P11362) (Homo sapiens, UniProt P11362)
T1 construct: purchased PamGene (PamChip PTK array, Upstream Kinase Analysis)
Method in brief: (§1)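 HL60 (AML) cell lysate was spiked with compound at 0.001, 0.01, 0.1, 1, 10 and 50 µM, or 2% v/v DMSO as control, then profiled in technical replicates on a tyrosine kinase peptide array of 196 phosphosites. Kinase activity was inferred from peptide-set changes using an upstream kinase tool.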

Fyn (P06241) = target: T2, Fyn (P06241) (Homo sapiens, UniProt P06241)
T2 construct: purchased PamGene (PamChip PTK array, Upstream Kinase Analysis)
Method in brief: as §1

TRKB (Q16620) = target: T3, TRKB (Q16620) (Homo sapiens, UniProt Q16620)
T3 construct: purchased PamGene (PamChip PTK array, Upstream Kinase Analysis)
Method in brief: as §1

HCK (P08631) = target: T4, HCK (P08631) (Homo sapiens, UniProt P08631)
T4 construct: purchased PamGene (PamChip PTK array, Upstream Kinase Analysis)
Method in brief: as §1

IGF1R (P08069) = target: T5, IGF1R (P08069) (Homo sapiens, UniProt P08069)
T5 construct: purchased PamGene (PamChip PTK array, Upstream Kinase Analysis)
Method in brief: as §1

FAK2 (Q14289) = target: T6, FAK2 (Q14289) (Homo sapiens, UniProt Q14289)
T6 construct: purchased PamGene (PamChip PTK array, Upstream Kinase Analysis)
Method in brief: as §1

PDGFR[alpha] (P16234) = target: T7, PDGFR[alpha] (P16234) (Homo sapiens, UniProt P16234)
T7 construct: purchased PamGene (PamChip PTK array, Upstream Kinase Analysis)
Method in brief: as §1

T3 sequence (Q16620 32-822): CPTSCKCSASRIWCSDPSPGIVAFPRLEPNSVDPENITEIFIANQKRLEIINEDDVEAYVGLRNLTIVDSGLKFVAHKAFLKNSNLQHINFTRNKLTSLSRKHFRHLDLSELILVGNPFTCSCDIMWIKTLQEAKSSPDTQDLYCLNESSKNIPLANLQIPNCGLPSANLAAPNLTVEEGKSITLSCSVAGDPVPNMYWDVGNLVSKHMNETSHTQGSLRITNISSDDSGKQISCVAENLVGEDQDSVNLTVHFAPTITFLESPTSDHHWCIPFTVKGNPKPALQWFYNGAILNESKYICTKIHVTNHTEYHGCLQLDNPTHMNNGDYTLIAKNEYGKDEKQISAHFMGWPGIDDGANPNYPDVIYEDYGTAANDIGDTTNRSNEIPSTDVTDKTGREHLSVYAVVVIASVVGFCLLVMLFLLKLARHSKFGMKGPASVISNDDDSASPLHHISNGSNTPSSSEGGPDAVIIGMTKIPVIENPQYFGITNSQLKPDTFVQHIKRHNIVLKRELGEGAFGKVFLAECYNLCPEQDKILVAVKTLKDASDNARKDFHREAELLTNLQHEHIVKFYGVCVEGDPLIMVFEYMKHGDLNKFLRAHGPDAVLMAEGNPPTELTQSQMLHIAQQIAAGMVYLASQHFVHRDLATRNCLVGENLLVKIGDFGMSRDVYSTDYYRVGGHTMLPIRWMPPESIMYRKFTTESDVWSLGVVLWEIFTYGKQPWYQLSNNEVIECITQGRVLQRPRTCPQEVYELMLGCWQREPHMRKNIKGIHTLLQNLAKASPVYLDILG
T1 sequence (P11362 22-822): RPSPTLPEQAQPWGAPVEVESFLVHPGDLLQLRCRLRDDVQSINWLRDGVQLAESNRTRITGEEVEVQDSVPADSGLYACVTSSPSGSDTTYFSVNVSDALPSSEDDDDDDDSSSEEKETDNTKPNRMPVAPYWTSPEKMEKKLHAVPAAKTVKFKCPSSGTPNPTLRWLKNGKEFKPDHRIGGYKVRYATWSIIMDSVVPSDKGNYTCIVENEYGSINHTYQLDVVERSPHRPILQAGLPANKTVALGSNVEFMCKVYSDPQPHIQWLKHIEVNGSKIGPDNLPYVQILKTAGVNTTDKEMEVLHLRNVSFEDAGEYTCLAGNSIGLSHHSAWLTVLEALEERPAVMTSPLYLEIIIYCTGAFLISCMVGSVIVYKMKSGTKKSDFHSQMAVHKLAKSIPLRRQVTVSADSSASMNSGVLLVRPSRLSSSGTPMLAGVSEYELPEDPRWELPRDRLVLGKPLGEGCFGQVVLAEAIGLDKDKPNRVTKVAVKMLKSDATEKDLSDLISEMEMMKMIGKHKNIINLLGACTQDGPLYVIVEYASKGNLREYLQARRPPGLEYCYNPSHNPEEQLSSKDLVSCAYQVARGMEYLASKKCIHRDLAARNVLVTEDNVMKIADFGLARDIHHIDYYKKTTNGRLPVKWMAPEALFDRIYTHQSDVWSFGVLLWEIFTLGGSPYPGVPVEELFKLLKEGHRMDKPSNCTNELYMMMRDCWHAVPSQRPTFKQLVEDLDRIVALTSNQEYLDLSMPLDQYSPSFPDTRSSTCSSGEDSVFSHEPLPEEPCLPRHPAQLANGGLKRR
T4 sequence (P08631 whole entry): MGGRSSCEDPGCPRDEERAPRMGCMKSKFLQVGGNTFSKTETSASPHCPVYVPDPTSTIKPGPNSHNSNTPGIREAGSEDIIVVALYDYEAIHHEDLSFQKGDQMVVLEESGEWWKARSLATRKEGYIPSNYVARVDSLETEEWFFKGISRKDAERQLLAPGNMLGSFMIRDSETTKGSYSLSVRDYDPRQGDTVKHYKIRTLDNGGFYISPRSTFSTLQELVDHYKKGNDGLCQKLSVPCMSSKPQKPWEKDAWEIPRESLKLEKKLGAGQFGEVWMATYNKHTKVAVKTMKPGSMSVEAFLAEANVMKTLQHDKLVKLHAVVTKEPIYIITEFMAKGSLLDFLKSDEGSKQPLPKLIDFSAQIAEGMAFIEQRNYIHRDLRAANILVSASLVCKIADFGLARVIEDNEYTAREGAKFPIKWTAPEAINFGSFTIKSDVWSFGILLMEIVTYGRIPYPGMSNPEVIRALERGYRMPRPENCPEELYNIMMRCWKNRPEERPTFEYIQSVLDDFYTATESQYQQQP
T2 sequence (P06241 whole entry): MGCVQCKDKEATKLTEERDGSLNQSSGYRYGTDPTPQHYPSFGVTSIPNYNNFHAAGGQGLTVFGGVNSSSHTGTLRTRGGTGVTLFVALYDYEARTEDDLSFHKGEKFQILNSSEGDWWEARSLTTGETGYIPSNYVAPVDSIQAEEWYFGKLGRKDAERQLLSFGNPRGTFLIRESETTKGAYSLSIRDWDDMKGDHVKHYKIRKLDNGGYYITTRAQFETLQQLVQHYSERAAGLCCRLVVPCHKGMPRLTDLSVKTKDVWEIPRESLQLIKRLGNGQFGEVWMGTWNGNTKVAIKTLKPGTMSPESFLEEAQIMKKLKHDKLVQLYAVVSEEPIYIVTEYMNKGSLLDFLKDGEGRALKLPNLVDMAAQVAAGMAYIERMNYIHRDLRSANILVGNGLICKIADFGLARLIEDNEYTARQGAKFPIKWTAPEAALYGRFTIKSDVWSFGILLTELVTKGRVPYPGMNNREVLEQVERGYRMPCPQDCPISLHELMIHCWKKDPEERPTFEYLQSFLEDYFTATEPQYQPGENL
T7 sequence (P16234 24-1089): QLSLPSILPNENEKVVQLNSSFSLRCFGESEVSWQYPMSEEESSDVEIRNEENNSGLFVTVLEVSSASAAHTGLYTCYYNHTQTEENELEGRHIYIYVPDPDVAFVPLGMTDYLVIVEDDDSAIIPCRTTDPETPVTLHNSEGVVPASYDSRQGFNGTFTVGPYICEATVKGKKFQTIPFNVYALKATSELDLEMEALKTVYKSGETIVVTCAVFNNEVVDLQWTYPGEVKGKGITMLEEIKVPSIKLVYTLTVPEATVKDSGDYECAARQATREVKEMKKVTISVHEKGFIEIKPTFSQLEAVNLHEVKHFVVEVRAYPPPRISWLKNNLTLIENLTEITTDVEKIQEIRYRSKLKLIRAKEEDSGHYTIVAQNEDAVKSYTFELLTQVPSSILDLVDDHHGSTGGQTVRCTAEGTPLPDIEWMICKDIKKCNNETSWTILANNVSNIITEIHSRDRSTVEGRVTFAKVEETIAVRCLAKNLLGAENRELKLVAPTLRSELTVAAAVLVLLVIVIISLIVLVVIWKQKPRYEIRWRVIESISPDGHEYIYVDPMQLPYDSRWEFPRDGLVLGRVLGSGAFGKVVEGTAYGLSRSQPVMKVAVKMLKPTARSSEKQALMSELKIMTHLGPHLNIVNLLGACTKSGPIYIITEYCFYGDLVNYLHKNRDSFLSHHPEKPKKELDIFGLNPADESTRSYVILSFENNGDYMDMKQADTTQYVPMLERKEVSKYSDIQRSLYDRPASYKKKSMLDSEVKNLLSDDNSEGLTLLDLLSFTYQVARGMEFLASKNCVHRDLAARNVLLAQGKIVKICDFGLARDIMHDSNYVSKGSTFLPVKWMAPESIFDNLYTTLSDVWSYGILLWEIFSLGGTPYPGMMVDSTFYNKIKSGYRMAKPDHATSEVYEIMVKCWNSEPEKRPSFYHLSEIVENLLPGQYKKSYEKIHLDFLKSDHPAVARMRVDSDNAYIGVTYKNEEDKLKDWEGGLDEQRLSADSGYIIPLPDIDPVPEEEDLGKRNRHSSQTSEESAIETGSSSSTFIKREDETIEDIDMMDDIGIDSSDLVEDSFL
T6 sequence (Q14289 whole entry): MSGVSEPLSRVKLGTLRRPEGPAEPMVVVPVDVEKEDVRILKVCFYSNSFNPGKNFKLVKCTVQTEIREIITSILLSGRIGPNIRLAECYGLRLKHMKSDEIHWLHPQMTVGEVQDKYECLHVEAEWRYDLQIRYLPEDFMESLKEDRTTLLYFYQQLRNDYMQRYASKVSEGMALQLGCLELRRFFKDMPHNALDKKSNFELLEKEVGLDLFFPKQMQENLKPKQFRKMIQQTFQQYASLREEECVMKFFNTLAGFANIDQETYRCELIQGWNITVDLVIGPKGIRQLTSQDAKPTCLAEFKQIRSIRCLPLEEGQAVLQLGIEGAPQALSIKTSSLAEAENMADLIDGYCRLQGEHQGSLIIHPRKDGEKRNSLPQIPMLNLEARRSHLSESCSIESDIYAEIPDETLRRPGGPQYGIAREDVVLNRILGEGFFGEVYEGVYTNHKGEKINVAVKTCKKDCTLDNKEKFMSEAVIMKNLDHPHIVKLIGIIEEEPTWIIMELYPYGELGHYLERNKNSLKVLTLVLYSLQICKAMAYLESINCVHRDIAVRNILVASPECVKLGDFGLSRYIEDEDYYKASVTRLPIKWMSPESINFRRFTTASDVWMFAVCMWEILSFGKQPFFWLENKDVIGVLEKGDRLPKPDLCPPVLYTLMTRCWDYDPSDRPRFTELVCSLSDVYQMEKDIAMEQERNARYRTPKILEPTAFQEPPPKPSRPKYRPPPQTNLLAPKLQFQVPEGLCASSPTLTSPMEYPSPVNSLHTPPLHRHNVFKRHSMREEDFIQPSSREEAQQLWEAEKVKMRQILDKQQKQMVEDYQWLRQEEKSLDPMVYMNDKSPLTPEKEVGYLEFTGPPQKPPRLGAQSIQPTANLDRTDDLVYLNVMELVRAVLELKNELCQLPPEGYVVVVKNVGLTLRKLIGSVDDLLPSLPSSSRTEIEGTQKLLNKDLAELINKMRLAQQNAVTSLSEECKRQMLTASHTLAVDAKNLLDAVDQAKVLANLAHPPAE

## COc1ccc(/C=C2\N=C(C)N(c3ccc(CC(=O)NCc4ccccc4)cc3)C2=O)cc1 [Compound 4c, (Z)-N-Benzyl-2-(4-(4-(4-methoxybenzylidene)-2-methyl-5-oxo-4,5-dihydro-1H-imidazol-1-yl)phenyl)acetamide]
FGFR1 (P11362)
  Mean Final score (Kinase score): 1.92
  Mean Kinase Statistic: -0.994
  Mean Significance Score: 1.619
  Mean Specificity Score: 0.1511
Fyn (P06241)
  Mean Final score (Kinase score): 2.45
  Mean Kinase Statistic: -1.236
  Mean Significance Score: 2.048
  Mean Specificity Score: 0.4193
TRKB (Q16620)
  Mean Final score (Kinase score): 2.487
  Mean Kinase Statistic: -1.25
  Mean Significance Score: 2.048
  Mean Specificity Score: 0.5169
HCK (P08631)
  Mean Final score (Kinase score): 1.871
  Mean Kinase Statistic: -1.0936
  Mean Significance Score: 1.7269
  Mean Specificity Score: 0.1451
IGF1R (P08069)
  Mean Final score (Kinase score): 2.173
  Mean Kinase Statistic: -1.034
  Mean Significance Score: 2.048
  Mean Specificity Score: 0.1033
FAK2 (Q14289)
  Mean Final score (Kinase score): 2.241
  Mean Kinase Statistic: -1.142
  Mean Significance Score: 2.048
  Mean Specificity Score: 0.216
PDGFR[alpha] (P16234)
  Mean Final score (Kinase score): 1.95
  Mean Kinase Statistic: -1.208
  Mean Significance Score: 1.701
  Mean Specificity Score: 0.3388
